Key:
[1] = tested on: C. difficile; test: ASTM E2197-02 disk carrier test against C. difficile spores; format: cell-based; conditions: C. difficile spores with soil load on stainless steel disks, 10 minutes contact
Description: Pyruvic peracid (PPA) and Peroxy α-ketobutyric acid (POKBA) were tested against C. difficile using the ASTM E2197-02 testing method and the results are shown on FIG. 3. […] The method of testing these molecules against C. difficile was designed to evaluate the ability of liquid chemical germicides to inactivate vegetative bacteria, viruses, fungi, mycobacteria and bacterial spores in the presence of a soil load on disk carriers that represent environmental surfaces and medical devices.
This test method is a standard test promulgated by ASTM Committee E35 on Pesticides and Subcommittee E35.15 on Antimicrobial Agents. The stringency in the test is provided by the use of a soil load, the microtopography of the carrier surface and the small ratio of disinfectant to surface area (1:5) typical for many disinfectant applications. Thus the formulation under test is presented with a reasonable challenge while allowing for efficient recovery of the test organisms from the inoculated carriers with or without their exposure to the test formulation.
The metal disks used in the basic test are also compatible with a wide variety of germicidal actives and most surfaces in consumer based product manufacturing and health care facilities. The design of the metal discs makes it possible to place onto each precisely measured volume of the test organism (28 μL) as well as the test formulation (125 μL). […]

[2] = tested on: MRSA; test: Spray test, log reduction of MRSA; format: cell-based; conditions: derived from 10% pyruvate and 3% H2O2; no growth in the broth, complete elimination assumed
From the text: A representative list of the organisms tested include, but are not limited to, Bacillus subtilis, Bacillus atrophaeus, Bacillus thuringiensis, Staphylococcus aureus, Salmonella cholerasuis, Pseudomonas aeruginosa, Aspergillus niger, and Trichophyton mentagrophytes. The following exemplifies one procedure derived from disinfectant test methods found in guidelines of the Association of Official Analytical Chemists (AOAC) to meet “log reduction criteria” established by the U.S. Environmental Protection Agency (EPA) and U.S. FDA for certain applications: (1) A tube of the sample-disinfectant is placed into a waterbath for temperature control and allowed to equilibrate; (2) Once the tube has reached temperature, it is inoculated to achieve a concentration of approximately 10^6 CFU/mL; (3) At selected time points (generally five points are used including zero) aliquots are removed and placed into a neutralizer blank; (4) Dilutions of the neutralizer are made and selected dilutions plated onto agar; (5) Colonies are enumerated and log reductions are calculated.
In order to obtain observable significant reductions (on the order of 106) of surface bacteria, a high number of viable CFU/in^2 must be available for treatment on the surface to be disinfected. […]
The effectiveness of treatments was evaluated by enumeration of the surviving bacteria on the slide. […]

SMILES	activity against C. difficile (comparison, FIG. 3) [1]	log reduction of the MRSA control [2]
CCC(=O)C(=O)OO [POKBA, Peroxy-alpha-Ketobutyric Acid]	significantly more active compared to PPA	–
CC(=O)C(=O)OO [peroxy pyruvic acid]	–	approximately 6 logs

Source: patent US11839213B2, “Antimicrobial, disinfecting, and wound healing compositions and methods for producing and using the same” (Armis Biopharma, Inc., priority 2008, dated 2023)
